Measurements as given in patent US4526989A, “1,4-Bis (substituted-amino)-5,8-dihydroxy-anthraquinones and leuco bases thereof” (priority 1979, dated 1985).
Values joined by “and” are separate entries in the source; they are usually repeats but may differ in a detail not shown here. Identical values can stand only once.

Key:
[1] = system: lymphocytic leukemia P388; assay: Lymphocytic leukemia P388 test (intraperitoneal administration); assay type: in vivo, DBA/2 mice
Procedure, shortened: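 DBA/2 mice, single sex, 5-6 per group, inoculated i.p. with 10^6 P388 leukemia cells. Compounds given i.p. at various doses on days 1, 5 and 9; survival followed 30 days, reporting median survival time and treated/control (T/C) survival ratio.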

[2] = system: lymphocytic leukemia P388; assay: Lymphocytic leukemia P388 test (oral drug administration); assay type: in vivo, DBA/2 mice; conditions: 60 mg./kg., administered intraperitoneally, positive control
Method: The animals used are DBA/2 mice all of one sex, weighing a minimum of 17 g. and all within a 3 gram weight range. There are 5 or 6 animals per test group. The tumor transplant is by intraperitoneal injection of 0.1 ml. of dilute ascitic fluid containing 10^6 cells of lymphocytic leukemia P388. The test compounds are administered intraperitoneally on days one, 5 and 9 (relative to tumor inoculation) at various doses. The animals are weighed and survivors are recorded on a regular basis for 30 days. The median survival time and the ratio of survival time for treated (T)/control (C) animals are calculated. […] The results of this test with representative compounds of the present invention appear in Table I. The criterion for efficacy is T/C×100≥125%.
The procedure used is the same as for the previously described test for lymphocytic leukemia P388 except that the test compounds are administered orally at various doses rather than intraperitoneally. The criterion for efficacy is T/C×100≥125%.

melanotic melanoma B16 = assay: Melanotic Melanoma B16 test; assay type: in vivo, C57BC/6 mice
Procedure, shortened: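 C57BC/6 mice (10 per group) were implanted i.p. with B16 melanoma homogenate, then dosed i.p. on days 1–9 at various doses.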

[3] = system: Ridgway Osteogenic Sarcoma; assay: Ridgway Osteogenic Sarcoma; assay type: in vivo, AKD2 F1 /J mice; conditions: for % Inhibition Tumor Growth / % Showing 50% Tumor Regression / No. Without Tumors/No. Survivors / Tumor: 7 days after therapy stopped; for Median Survival / T/C: 63 days after therapy stopped
Method: The animals used are AKD2 F1 /J mice, all of the same sex, weighing a minimim of 17 g. and all within a three-gram weight range. There are normally 8 animals per test group. The tumor is administered subcutaneously by trocar as five 2-mm. fragments per mouse. The test compounds are administered intraperitoneally every 4 days for a total of 6 inoculations beginning on day 15 (relative to tumor inoculation) at various doses. The animals are weighed and survivors are recorded on a regular basis for 90 days. The regression of tumors is recorded in all test animals.

[4] = Mus musculus, P388, ip, read-out: T/C × 100
[5] = 12.5 mg./kg. i.p., days 1, 5 and 9
[6] = 6 mg./kg. i.p., days 1 through 9
[7] = 12 mg./kg. i.p., days 1 through 9

Structure (SMILES): O=c1[nH]cc(F)c(=O)[nH]1 [5-Fluorouracil, reference compound]
- response vs control in vivo at 40 mg/kg ([1]; Mus musculus, P388, ip, 40 mg./kg. injection, positive control, efficacy ≥125%, read-out: T/C × 100): 164% and 155%
- response vs control in vivo at 60 mg/kg [1, 4]: 200%
- Median Survival Time [2]: 19.0 days and 20.0 days
- T/C × 100 ([2]; efficacy ≥125%): 190% and 174%
- response vs control in vivo at 60 mg/kg (melanotic melanoma B16; Mus musculus, ip, 60 mg./kg. injection, positive control, efficacy ≥125%, read-out: T/C × 100): 128%

Structure (SMILES): CN(Cc1cnc2nc(N)nc(N)c2n1)c1ccc(C(=O)N[C@@H](CCC(=O)O)C(=O)O)cc1 [Methotrexate]
- % Inhibition Tumor Growth ([3]; 6 mg./kg. i.p.): 36%
- % Showing 50% Tumor Regression ([3]; 6 mg./kg. i.p.): 0%
- No. Without Tumors/No. Survivors ([3]; 6 mg./kg. i.p.): 0/4
- Tumor ([3]; 6 mg./kg. i.p.): 758 (mm.) 2
- Median Survival ([3]; 6 mg./kg. i.p.): 46 days
- % Inhibition Tumor Growth ([3]; 12 mg./kg. i.p.): 23%
- % Showing 50% Tumor Regression ([3]; 12 mg./kg. i.p.): 0%
- No. Without Tumors/No. Survivors ([3]; 12 mg./kg. i.p.): 0/5
- Tumor ([3]; 12 mg./kg. i.p.): 916 (mm.) 2
- Median Survival ([3]; 12 mg./kg. i.p.): 49 days
- % Inhibition Tumor Growth ([3]; 25 mg./kg. i.p.): 54%
- % Showing 50% Tumor Regression ([3]; 25 mg./kg. i.p.): 12%
- No. Without Tumors/No. Survivors ([3]; 25 mg./kg. i.p.): 1/6
- Tumor ([3]; 25 mg./kg. i.p.): 546 (mm.) 2
- Median Survival ([3]; 25 mg./kg. i.p.): 52.5 days
- T/C ([3]; 25 mg./kg. i.p.): 118%

Structure (SMILES): CC[C@]1(O)C[C@H]2CN(CCc3c([nH]c4ccccc34)[C@@](C(=O)OC)(c3cc4c(cc3OC)N(C=O)[C@H]3[C@@](O)(C(=O)OC)[C@H](OC(C)=O)[C@]5(CC)C=CCN6CC[C@]43[C@@H]65)C2)C1 [Vincristine]
- % Inhibition Tumor Growth ([3]; 0.5 mg./kg. i.p.): 93%
- % Showing 50% Tumor Regression ([3]; 0.5 mg./kg. i.p.): 57%
- No. Without Tumors/No. Survivors ([3]; 0.5 mg./kg. i.p.): 4/7
- Tumor ([3]; 0.5 mg./kg. i.p.): 77 (mm.) 2
- Median Survival ([3]; 0.5 mg./kg. i.p.): 83 days
- T/C ([3]; 0.5 mg./kg. i.p.): 186%
- % Inhibition Tumor Growth ([3]; 1.0 mg./kg. i.p.): 100%
- % Showing 50% Tumor Regression ([3]; 1.0 mg./kg. i.p.): 100%
- No. Without Tumors/No. Survivors ([3]; 1.0 mg./kg. i.p.): 6/6
- Tumor ([3]; 1.0 mg./kg. i.p.): 0 (mm.) 2
- Median Survival ([3]; 1.0 mg./kg. i.p.): 85 days
- T/C ([3]; 1.0 mg./kg. i.p.): 191%
- % Inhibition Tumor Growth ([3]; 1.5 mg./kg. i.p.): 100%
- % Showing 50% Tumor Regression ([3]; 1.5 mg./kg. i.p.): 100%
- No. Without Tumors/No. Survivors ([3]; 1.5 mg./kg. i.p.): 4/4
- Tumor ([3]; 1.5 mg./kg. i.p.): 0 (mm.) 2
- Median Survival ([3]; 1.5 mg./kg. i.p.): 68 days
- T/C ([3]; 1.5 mg./kg. i.p.): 153%

Structure (SMILES): Cl.Cl.O=C1c2c(O)ccc(O)c2C(=O)c2c(NCCNCCO)ccc(NCCNCCO)c21 [1,4-Bis[2-(2-hydroxyethylamino)ethylamino]-5,8-dihydroxyanthraquinone Dihydrochloride]
- Median Survival Time ([1]; 0.04 mg./kg. i.p., days 1, 5 and 9): 20.0 days
- Median Survival Time ([1]; 0.09 mg./kg. i.p., days 1, 5 and 9): 21.0 days
- Median Survival Time ([1]; 0.19 mg./kg. i.p., days 1, 5 and 9): 25.0 days
- Median Survival Time ([1]; 0.39 mg./kg. i.p., days 1, 5 and 9): 27.0 days
- Median Survival Time ([1]; 0.78 mg./kg. i.p., days 1, 5 and 9): > 29.0 days
- Median Survival Time ([1]; 1.5 mg./kg. i.p., days 1, 5 and 9): > 29.0 days
- Median Survival Time ([1]; 3.1 mg./kg. i.p., days 1, 5 and 9): 22.0 days
- Median Survival Time ([1]; 6.2 mg./kg. i.p., days 1, 5 and 9): 20.0 days
- Median Survival Time [1, 5]: 13.0 days
- response vs control in vivo at 0.04 mg/kg [1, 4]: 200%
- response vs control in vivo at 0.19 mg/kg [1, 4]: 250%
- response vs control in vivo at 6.2 mg/kg [1, 4]: 200%
- response vs control in vivo at 0.09 mg/kg ([1]; Mus musculus, P388, ip, 0.09 mg./kg. i.p., days 1, 5 and 9, efficacy ≥125%, read-out: T/C × 100): 210%
- response vs control in vivo at 0.39 mg/kg ([1]; Mus musculus, P388, ip, 0.39 mg./kg. i.p., days 1, 5 and 9, efficacy ≥125%, read-out: T/C × 100): 270%
- response vs control in vivo at 0.78 mg/kg ([1]; Mus musculus, P388, ip, 0.78 mg./kg. i.p., days 1, 5 and 9, efficacy ≥125%, read-out: T/C × 100): > 290%
- response vs control in vivo at 1.5 mg/kg ([1]; Mus musculus, P388, ip, 1.5 mg./kg. i.p., days 1, 5 and 9, efficacy ≥125%, read-out: T/C × 100): > 290%
- response vs control in vivo at 3.1 mg/kg ([1]; Mus musculus, P388, ip, 3.1 mg./kg. i.p., days 1, 5 and 9, efficacy ≥125%, read-out: T/C × 100): 220%
- response vs control in vivo at 12.5 mg/kg ([1]; Mus musculus, P388, ip, 12.5 mg./kg. i.p., days 1, 5 and 9, efficacy ≥125%, read-out: T/C × 100): 130%
- Median Survival Time (melanotic melanoma B16; 0.3 mg./kg. i.p., days 1 through 9): 34.0 days
- Median Survival Time (melanotic melanoma B16; 0.7 mg./kg. i.p., days 1 through 9): > 34.0 days
- Median Survival Time (melanotic melanoma B16; 1.5 mg./kg. i.p., days 1 through 9): > 34.0 days
- Median Survival Time (melanotic melanoma B16; 3 mg./kg. i.p., days 1 through 9): > 28.5 days
- Median Survival Time (melanotic melanoma B16; [6]): 15.0 days
- Median Survival Time (melanotic melanoma B16; [7]): 11.0 days
- response vs control in vivo at 6 mg/kg (melanotic melanoma B16; Mus musculus, ip, read-out: T/C × 100): 100%
- response vs control in vivo at 0.3 mg/kg (melanotic melanoma B16; Mus musculus, ip, 0.3 mg./kg. i.p., days 1 through 9, efficacy ≥125%, read-out: T/C × 100): 227%
- response vs control in vivo at 0.7 mg/kg (melanotic melanoma B16; Mus musculus, ip, 0.7 mg./kg. i.p., days 1 through 9, efficacy ≥125%, read-out: T/C × 100): > 227%
- response vs control in vivo at 1.5 mg/kg (melanotic melanoma B16; Mus musculus, ip, 1.5 mg./kg. i.p., days 1 through 9, efficacy ≥125%, read-out: T/C × 100): > 227%
- response vs control in vivo at 3 mg/kg (melanotic melanoma B16; Mus musculus, ip, 3 mg./kg. i.p., days 1 through 9, efficacy ≥125%, read-out: T/C × 100): > 190%
- response vs control in vivo at 12 mg/kg (melanotic melanoma B16; Mus musculus, ip, 12 mg./kg. i.p., days 1 through 9, efficacy ≥125%, read-out: T/C × 100): 73%

Structure (SMILES): CC(C)NCCNC1=C2C(=O)c3c(O)ccc(O)c3C(=O)C2=C(NCCNC(C)C)CC1 [Leuco-1,4-bis[2-(2-isopropylamino)ethylamino]-5,8-dihydroxyanthraquinone]
- Median Survival Time [1, 5]: 15.0 days
- T/C × 100 ([1]; 12.5 mg./kg. i.p., days 1, 5 and 9, efficacy ≥125%): 136%
- Median Survival Time ([1]; 25 mg./kg. i.p., days 1, 5 and 9): 17.0 days
- T/C × 100 ([1]; 25 mg./kg. i.p., days 1, 5 and 9, efficacy ≥125%): 155%
- Median Survival Time ([1]; 50 mg./kg. i.p., days 1, 5 and 9): 19.0 days
- T/C × 100 ([1]; 50 mg./kg. i.p., days 1, 5 and 9, efficacy ≥125%): 173%
- Median Survival Time ([1]; 100 mg./kg. i.p., days 1, 5 and 9): 8.0 days
- T/C × 100 ([1]; 100 mg./kg. i.p., days 1, 5 and 9, efficacy ≥125%): 73%
- Median Survival Time (melanotic melanoma B16; [6]): 25.0 days
- T/C × 100 (melanotic melanoma B16; 6 mg./kg. i.p., days 1 through 9, efficacy ≥125%): 151%
- Median Survival Time (melanotic melanoma B16; [7]): 30.0 days
- T/C × 100 (melanotic melanoma B16; 12 mg./kg. i.p., days 1 through 9, efficacy ≥125%): 182%
- Median Survival Time (melanotic melanoma B16; 25 mg./kg. i.p., days 1 through 9): 31.0 days
- T/C × 100 (melanotic melanoma B16; 25 mg./kg. i.p., days 1 through 9, efficacy ≥125%): 188%
- Median Survival Time (melanotic melanoma B16; 50 mg./kg. i.p., days 1 through 9): 6.5 days
- T/C × 100 (melanotic melanoma B16; 50 mg./kg. i.p., days 1 through 9, efficacy ≥125%): 39%
